Assay results published in patent publication US20150038464A1, “METHODS OF INCREASING LIGHT RESPONSIVENESS IN A SUBJECT WITH RETINAL DEGENERATION” (The United States Government as represented by the …, priority 2012, published 2015).

Legend:
P23H rat RGCs [1] = assay: Light-evoked responses (intensity-response curves) of retinal ganglion cells recorded extracellularly from isolated P23H rat retina; assay type: cell-based; settings: 500 nM JNJ16259685
Experimental: Sprague-Dawley (SD) rats (age range 13-44 weeks) and P23H-line 1 homozygous rats (age range 23-42 weeks) were used in this study. Both the SD rats and P23H rats were bred and housed in the same facility. Breeding pairs of SD rats were obtained from Harlan Laboratories (Indianapolis, Ind.). Breeding pairs of P23H-line 1 homozygous rats were generously donated by Dr. Matthew LaVail (University of California San Francisco, Calif.). The room light was kept on a 12 hour light/dark cycle using standard fluorescent lighting. During the light cycle the illumination at the level of the cages was 100-200 lux. All animal care procedures and experimental methods were approved by the appropriate Institutional Animal Care and Use Committee.
On the day of an experiment, a rat was euthanized with sodium pentobarbital (150 mg/kg, i.p.), and the eyes were removed and hemisected under normal room light. […]
Light from a mercury arc lamp illuminated an aperture that was focused on the retina from above through the 4× objective of the microscope. The image produced on the retina was either a 250-μm or 1.5-mm diameter spot, which was centered on the recorded RGC. […] The intensity of the unattenuated light stimulus on the retina measured with a spectroradiometer (ILT900-R, International Light Technologies, Peabody, Mass.) was 8.5×10^17 photons/cm^2/s. […]

P23H rat RGCs [2] = assay: as above; assay type: cell-based; settings: 16 P23H rat RGCs, 500 nM JNJ16259685

CO[C@H]1CC[C@@H](C(=O)c2ccc3nc4c(cc3c2)CCCO4)CC1 [JNJ16259685, 3,4-dihydro-2H-pyranol[2,3-b]quinolin-7-yl-(cis-4-methoxycyclohexyl)-methanone]
average increase in light sensitivity (P23H rat RGCs [1]; 16 P23H rat RGCs (15 ON-center, one OFF-center)): 0.56 log units
increase in maximum peak response (P23H rat RGCs [1]; 16 P23H rat RGCs, P=0.007): 9.9%
dynamic operating range with drug (P23H rat RGCs [2]; mean±SD, before drug 0.89±0.41): 1.05±0.42 log unit
maximum peak response with drug (P23H rat RGCs [2]; mean±SD, before drug 162±65): 178±64 spikes/s
factor by which the light the cells responded to was less intense than without drug (P23H rat RGCs [2]): ~4 fold
increase in dynamic operating range (P23H rat RGCs [2]; not significant (P=0.239)): 18%
